Patent US8058245B2, “Fused heterocycle derivative, medicinal composition containing the same, and medicinal use thereof” (Kissei Pharmaceutical Co., Ltd., priority 2004, dated 2011)

What was measured:
[1] = molecular target: T1, human SGLT2 (Homo sapiens, UniProt P31639); test: Assay for inhibitory effects on human SGLT2 activity (uptake of methyl-α-D-glucopyranoside in CS2-5E cells); format: cell-based; conditions: CHO-K1 cells stably expressing human SGLT2 (CS2-5E); 50% inhibition of uptake of 1 mM 14C-labeled/non-labeled methyl-α-D-glucopyranoside, 37° C., 1 hour
T1 construct: expressed in transfected cells
T1 sequence (P31639 1-672): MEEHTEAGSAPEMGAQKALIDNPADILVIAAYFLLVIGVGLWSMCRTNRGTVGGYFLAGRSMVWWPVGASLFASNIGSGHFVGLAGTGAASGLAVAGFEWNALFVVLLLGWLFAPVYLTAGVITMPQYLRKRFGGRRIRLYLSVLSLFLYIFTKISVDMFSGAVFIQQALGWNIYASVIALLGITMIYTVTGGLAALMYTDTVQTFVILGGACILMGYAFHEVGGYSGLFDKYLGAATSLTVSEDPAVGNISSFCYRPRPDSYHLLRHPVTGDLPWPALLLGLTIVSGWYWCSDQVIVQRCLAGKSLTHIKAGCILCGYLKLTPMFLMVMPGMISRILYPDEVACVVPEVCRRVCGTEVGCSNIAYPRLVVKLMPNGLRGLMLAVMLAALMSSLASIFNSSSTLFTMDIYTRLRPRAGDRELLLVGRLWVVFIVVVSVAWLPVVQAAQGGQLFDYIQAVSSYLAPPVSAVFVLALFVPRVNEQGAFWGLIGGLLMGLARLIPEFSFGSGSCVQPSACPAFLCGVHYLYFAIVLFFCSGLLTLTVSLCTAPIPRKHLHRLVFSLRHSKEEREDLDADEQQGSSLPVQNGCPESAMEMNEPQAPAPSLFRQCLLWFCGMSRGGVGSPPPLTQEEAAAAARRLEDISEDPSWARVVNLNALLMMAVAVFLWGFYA
Protocol: Assay for Inhibitory Effects on Human SGLT2 Activity
1) Cloning and Construction of the Vector Expressing Human SGLT2
The cDNA library was prepared for PCR amplification by reverse transcription from total RNA deprived from human kidney (Ori gene) using oligo-dT as a primer. Using this cDNA library as a template, the DNA fragment coding 2 to 2039 bp of human SGLT2 (ACCESSION: M95549, M95299), which was reported by R. G. Wells et al., was amplified by PCR method and inserted into the multi-cloning site of pcDNA3.1 (−) (Invitrogen). The DNA sequence inserted was perfectly matched to the previously reported sequence.
2) Establishment of Cell Line Stably Expressing Human SGLT2
The expression vector of human SGLT2 was digested by Sca I into a linear DNA. The linear DNA was transfected into CHO-K1 cells by means of lipofection (Effectene Transfection Reagent: QIAGEN). Neomycin resistant cell lines were selected by culture in the medium containing G418 (1 mg/mL, LIFE TECHNOLOGIES), and then the activity against the uptake of methyl-α-D-glucopyranoside was measured by the method described below. […] CS2-5E cells were cultured in the presence of G418 at 200 μg/mL. […]
CS2-5E cells were seeded into a 96-well culture plate at a density of 3×10^4 cells/well and cultured for 2 days, and were used in the uptake assay. […] Radio activity was measured by means of micro-scintillation counter TopCount (Packard). […]

[2] = molecular target: T2, human SGLT1 (Homo sapiens, UniProt P13866); test: Assay for inhibitory effects on human SGLT1 activity (uptake of methyl-α-D-glucopyranoside in CS1-5-11D cells); format: cell-based; conditions: CHO-K1 cells stably expressing human SGLT1 (CS1-5-11D); 50% inhibition of uptake of 1 mM 14C-labeled/non-labeled methyl-α-D-glucopyranoside, 37° C., 1 hour
T2 construct: expressed in transfected cells
T2 sequence (P13866 1-664): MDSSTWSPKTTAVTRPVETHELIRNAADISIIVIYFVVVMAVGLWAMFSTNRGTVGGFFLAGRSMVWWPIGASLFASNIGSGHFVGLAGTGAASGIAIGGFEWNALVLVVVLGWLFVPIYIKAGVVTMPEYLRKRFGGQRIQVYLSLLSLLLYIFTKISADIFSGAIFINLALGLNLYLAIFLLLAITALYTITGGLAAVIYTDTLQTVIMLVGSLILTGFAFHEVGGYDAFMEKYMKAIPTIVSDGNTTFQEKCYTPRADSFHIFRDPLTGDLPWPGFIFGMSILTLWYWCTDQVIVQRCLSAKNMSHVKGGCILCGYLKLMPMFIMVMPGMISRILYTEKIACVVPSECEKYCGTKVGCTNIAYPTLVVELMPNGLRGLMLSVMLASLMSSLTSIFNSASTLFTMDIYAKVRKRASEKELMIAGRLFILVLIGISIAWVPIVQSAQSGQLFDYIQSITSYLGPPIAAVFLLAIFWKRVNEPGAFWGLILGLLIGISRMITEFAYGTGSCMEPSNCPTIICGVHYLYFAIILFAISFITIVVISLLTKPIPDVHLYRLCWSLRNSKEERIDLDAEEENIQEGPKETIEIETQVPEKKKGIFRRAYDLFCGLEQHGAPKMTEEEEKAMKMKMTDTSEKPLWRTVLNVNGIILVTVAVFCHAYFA
Protocol: Test Example 1 Assay for Inhibitory Effects on Human SGLT1 Activity 1) Cloning and Construction of the Vector Expressing Human SGLT1 The cDNA library was prepared for PCR amplification by reverse transcription from total RNA deprived from human small intestine (Ori gene) using oligo-dT as a primer. Using this cDNA library as a template, the DNA fragment coding 1 to 2005 bp of human SGLT1 (ACCESSION: M24847), which was reported by Hediger et al., was amplified by PCR method and inserted into the multi-cloning site of pcDNA3.1 (−) (Invitrogen). The DNA sequence inserted was perfectly matched to the previously reported sequence. 2) Establishment of Cell Line Stably Expressing Human SGLT1 The expression vector of human SGLT1 was digested by Sca I into a linear DNA. The linear DNA was transfected into CHO-K1 cells by means of lipofection (Effectene Transfection Reagent: QIAGEN). Neomycin resistant cell lines were selected by culture in the medium containing G418 (1 mg/mL, LIFE TECHNOLOGIES), and then the activity against the uptake of methyl-α-D-glucopyranoside was measured by the method described below. […] Radio activity was measured by means of micro-scintillation counter TopCount (Packard). One hundred % was set to the difference between the uptake in the control group and the basal uptake, and the uptake of methyl α-D-glucopyranoside at each drug concentration were calculated. […]

Row | Compound | IC50 [1] [nM] | IC50 [2] [nM]
1 | COc1cc2occ(CCc3ccccc3)c2cc1[C@@H]1O[C@H](CO)[C@@H](O)[C@H](O)[C@H]1O [Example 2, 1-[6-Methoxy-3-(2-phenylethyl)benzo[b]furan-5-yl]-1-deoxy-β-D-glucopyranose] | 57 | –
2 | CCc1ccc(Cc2csc3ccc([C@@H]4O[C@H](CO)[C@@H](O)[C@H](O)[C@H]4O)cc23)cc1 [Example 9] | 1.4 | –
3 | OC[C@H]1O[C@@H](c2ccc3scc(CCc4ccccc4)c3c2)[C@H](O)[C@@H](O)[C@@H]1O [Example 1, 1-[3-(2-Phenylethyl)benzo[b]thiophen-5-yl]-1-deoxy-β-D-glucopyranose] | – | 1500
